Reference: ChEMBL document CHEMBL4321797, “New Approaches to Cancer Therapy: Combining Fatty Acid Amide Hydrolase (FAAH) Inhibition with Peroxisome Proliferator-Activated Receptors (PPARs) Activation” (J Med Chem, 2019)

Key:
[1] = target: T1, Fatty-acid amide hydrolase 1 (Homo sapiens, UniProt O00519); experiment: Inhibition of FAAH (unknown origin)
T1 sequence (O00519 whole entry): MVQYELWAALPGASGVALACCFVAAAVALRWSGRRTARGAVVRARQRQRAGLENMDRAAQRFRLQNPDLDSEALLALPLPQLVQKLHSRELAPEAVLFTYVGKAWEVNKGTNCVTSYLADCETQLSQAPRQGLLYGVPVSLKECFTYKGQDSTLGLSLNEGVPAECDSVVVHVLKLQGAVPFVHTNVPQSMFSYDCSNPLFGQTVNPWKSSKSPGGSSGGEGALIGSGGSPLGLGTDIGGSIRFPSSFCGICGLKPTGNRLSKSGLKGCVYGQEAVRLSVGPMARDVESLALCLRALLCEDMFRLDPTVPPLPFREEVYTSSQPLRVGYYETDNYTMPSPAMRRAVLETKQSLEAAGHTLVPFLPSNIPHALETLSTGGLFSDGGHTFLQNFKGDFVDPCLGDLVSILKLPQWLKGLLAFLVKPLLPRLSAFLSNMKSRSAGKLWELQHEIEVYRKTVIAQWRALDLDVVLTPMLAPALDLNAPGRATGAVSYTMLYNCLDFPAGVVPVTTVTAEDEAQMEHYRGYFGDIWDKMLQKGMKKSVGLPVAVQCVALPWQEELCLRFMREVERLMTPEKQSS

[2] = target: T1, Fatty-acid amide hydrolase 1; experiment: Inhibition of recombinant human C-terminal FLAG-tagged FAAH expressed in HEK293T cells preincubated for 4 hrs followed by addition of FP-TAMRA probe and measured after 20 mins by SDS-PAGE based fluorescence assay; assay type: cell-based

IC50 [2] [µM]	SMILES	IC50 [1] [µM]
–	CCCCC/C=C\C/C=C\C/C=C\C/C=C\CCCC(=O)NCCc1c[nH]c2ccc(O)cc12	5.6
0.049	CN(C(=O)n1cnc(-c2ccc[n+]([O-])c2)c1)C1CCCCC1	–
